Measurements from patent US7208479B2, “Peritoneal dialysis solution containing modified icodextrins” (Baxter International, Inc., priority 1998, dated 2007).

Tests used:
[1] = Stability under sterilization conditions: absorbance (284 nm) variation after sterilization (121° C. 45 min); assay type: physicochemical
Protocol: The products were tested for stability under sterilization conditions at neutral pH. A significant reduction of absorbance variation at 284 nm (Δ Abs) after sterilization is observed for the reduced compounds. The reduced compounds from Example 1 are listed as HMW1 red, HMW2 red and LMW red in Table 1.
Utilizing the three different samples of maltodextrins discussed above with respect to Example 1, oxidation reactions were carried out on each sample by dissolving 15 grams of maltodextrin in 30 ml of water and combining the starch solution with an effective amount of NaOCl in 70 ml of a solution containing sodium hydroxide and having a pH of 8±0.5 at a temperature of 43° C. The combined solutions were allowed to stand for approximately 2 hours and the product solution was purified by gel permeation chromatography. Again, the products were analyzed using ^13C NMR spectroscopy and were tested for stability under sterilization conditions as illustrated in Table 1. While the oxidation products, HMW1 ox HMW2 ox and LMW ox show contrasting results, this is attributed to the high molecular weight oxidized products not being completely purified.
The stability of one product shown in Table 3 was tested for stability under sterilization conditions and the observed variation at 284 nm is compared with that of glucose and methyl glycoside.

[2] = In vitro dialysis test predictive of dialytic efficiency: volume increase inside dialysis bag (Spectra Pore membrane, cut-off 500 Dalton); conditions: 37° C.
Protocol: In an in vitro test predictive of the dialytic efficiency of the osmotic agents described above, small dialysis bags with Spectra Pore membrane with a cut-off 500 Dalton (diameter 15 mm, 15 cm high) were filled with 3 ml of water solutions at different concentrations (2.5, 5.0% w/v of the samples). The bags were immersed in 200 ml of distilled water and 37° C. while stirring the extra dialysis solution. At given times (0, 1, 2, 3, 4, 5, 6 hours), the increase in the volume inside the dialysis bag was evaluated by weight and expressed as a percentage increase compared to the starting volume (Δw %).

[3] = 2.5% solution at pH 7 (footnote *), sterilization 121° C. 45 min
[4] = 2.5% w/v, listed as α-methly-gluc.
[5] = 2.5% w/v, listed as β-methly-gluc.
[6] = Table 4, 2.5% (w/v), sterilization 121° C. 45 min

Compound | ΔAbs (pH 6.5–7.5) [1, 3] | ΔAbs neutra (pH 6.5–7.5) [1, 6] | Δw % 1 h ([2]; 2.5% w/v) | Δw % 2 h ([2]; 2.5% w/v) | Δw % 3 h ([2]; 2.5% w/v) | Δw % 4 h ([2]; 2.5% w/v) | Δw % 5 h ([2]; 2.5% w/v) | Δw % 6 h ([2]; 2.5% w/v) | Δw % 1 h ([2]; 5% w/v) | Δw % 2 h ([2]; 5% w/v) | Δw % 3 h ([2]; 5% w/v) | Δw % 4 h ([2]; 5% w/v) | Δw % 5 h ([2]; 5% w/v) | Δw % 6 h ([2]; 5% w/v) | further results
O=P(O)(O)O[C@H]1O[C@H](CO)[C@@H](O)[C@H](O)[C@H]1O [gluc.-1-phos., glucose-1-phosphate] | – | – | 35.8% | 53.6% | 76.3% | 95.9% | 120.1% | 144.1% | – | – | – | – | – | – | –
COC1OC(CO)C(O)C(O)C1O (stereo not drawn) [α-methyl-gluc.] | – | – | – | – | – | – | – | – | 30.9% | 60.7% | 86.5% | 107.9% | 123.2% | 142.0% | Δw % 1 h [2, 4]: 21.8%; Δw % 2 h [2, 4]: 39.2%; Δw % 3 h [2, 4]: 55.4%; Δw % 4 h [2, 4]: 67.64%; Δw % 5 h [2, 4]: 79.5%; Δw % 6 h [2, 4]: 92.1%
COC1OC(CO)C(O)C(O)C1O (stereo not drawn) [β-methyl-gluc.] | – | – | – | – | – | – | – | – | 45% | 76.1% | 103.0% | 129.7% | 151.7% | 174.9% | Δw % 1 h [2, 5]: 34.0%; Δw % 2 h [2, 5]: 50.3%; Δw % 3 h [2, 5]: 63.7%; Δw % 4 h [2, 5]: 67.6%; Δw % 5 h [2, 5]: 77.7%; Δw % 6 h [2, 5]: 86.5%

Now from value to compound, other results behind:

ΔAbs (pH 6.5–7.5) [1, 3] | ΔAbs neutra (pH 6.5–7.5) [1, 6] | Compound | Δw % 1 h ([2]; 2.5% w/v) | Δw % 2 h ([2]; 2.5% w/v) | Δw % 3 h ([2]; 2.5% w/v) | Δw % 4 h ([2]; 2.5% w/v) | Δw % 5 h ([2]; 2.5% w/v) | Δw % 6 h ([2]; 2.5% w/v) | Δw % 1 h ([2]; 5% w/v) | Δw % 2 h ([2]; 5% w/v) | Δw % 3 h ([2]; 5% w/v) | Δw % 4 h ([2]; 5% w/v) | Δw % 5 h ([2]; 5% w/v) | Δw % 6 h ([2]; 5% w/v) | further results
0.01 | – | O=C1O[C@H](CO)[C@@H](O)[C@H](O)[C@H]1O [D(+)-Gluconolactone] | – | – | – | – | – | – | – | – | – | – | – | – | –
– | 0.01 | Methyl glycoside | – | – | – | – | – | – | – | – | – | – | – | – | –
0.98 | 0.07 | O=C[C@H](O)[C@@H](O)[C@H](O)[C@H](O)CO [Glucose] | 15.3% | 34.2% | 43.4% | 57.3% | 74.2% | 90.9% | – | – | – | – | – | – | ΔAbs (pH 6.5–7.5) ([1]; 5% solution, after minus before sterilization 121° C. 45 min, pH 6.5–7.5): 2.54 ± 0.78; ΔAbs (pH 5.5) ([1]; 5% solution, sterilization 121° C. 45 min, pH 5.5): 2.36 ± 0.96; ΔAbs neutra (pH 6.5–7.5) ([1]; Table 4, 5% (w/v), sterilization 121° C. 45 min): 2.43 ± 0.9
